Values joined by “and” are separate entries in the source; they are usually repeats but may differ in a detail not shown here. Equal entries are not always repeated. Structures can show the parent of a compound that is named as a salt. Where two headings read alike, the source gives them in different places.
What was measured:
ML2 = assay: Secondary dose-response HTS, Cell Titer Glo; type: cell-based, human; details: Homo sapiens
CHRF288-11 [1] = assay: cells; parameters: species or system AML cell lines (8); Secondary HTS, 10-point dose-response in triplicate, Cell Titer Glo viability, four-parameter fit EC50; details: 72 h, read-out: CHRF288-11
MOLM-13 [2] = assay: Secondary dose-response HTS, Cell Titer Glo; type: cell-based, human; details: Homo sapiens
CMK [3] = assay: cells; parameters: species or system AML cell lines (8); Secondary HTS, 10-point dose-response in triplicate, Cell Titer Glo viability, four-parameter fit EC50; details: Homo sapiens, CMK, 72 h, read-out: CMK
MV4-11 [4] = assay: Secondary dose-response HTS, Cell Titer Glo; type: cell-based, human; details: Homo sapiens
U937 [5] = assay: Secondary dose-response HTS, Cell Titer Glo; type: cell-based, human; details: Homo sapiens, U-937; secondary high-throughput screen; U937; read-out: average effective concentration, U937
M07e [6] = assay: cells; parameters: species or system AML cell lines (8); Secondary HTS, 10-point dose-response in triplicate, Cell Titer Glo viability, four-parameter fit EC50; details: M-07e, 72 h, read-out: M07e
CMS [7] = assay: Secondary dose-response HTS, Cell Titer Glo; type: cell-based, human; details: Homo sapiens, HTS, read-out: average effective concentration, CMS
MOLM-13 [8] = assay: cells; parameters: species or system AML cell lines (8); Secondary HTS, 10-point dose-response in triplicate, Cell Titer Glo viability, four-parameter fit EC50; details: Homo sapiens, MOLM-13, 72 h, read-out: MOLM-13
CMK [9] = assay: Secondary dose-response HTS, Cell Titer Glo; type: cell-based, human; details: Homo sapiens, CMK, read-out: average effective concentration, CMK
U937 [10] = assay: cells; parameters: species or system AML cell lines (8); Secondary HTS, 10-point dose-response in triplicate, Cell Titer Glo viability, four-parameter fit EC50; details: Homo sapiens, U-937, 72 h, read-out: U937
CHRF288-11 [11] = assay: Secondary dose-response HTS, Cell Titer Glo; type: cell-based, human; details: Homo sapiens, HTS, read-out: average effective concentration, CHRF288-11
CMS [12] = assay: cells; parameters: species or system AML cell lines (8); Secondary HTS, 10-point dose-response in triplicate, Cell Titer Glo viability, four-parameter fit EC50; details: 72 h, read-out: CMS
MV4-11 [13] = assay: cells; parameters: species or system AML cell lines (8); Secondary HTS, 10-point dose-response in triplicate, Cell Titer Glo viability, four-parameter fit EC50; details: Homo sapiens, MV4-11, 72 h, read-out: MV4-11
CMK [14] = test system: CMK; parameters: species or system AML cell lines (8); Primary HTS, single concentration about 10 uM, Cell Titer Glo viability; log10 luminescence, per cent inhibition relative to cycloheximide control; details: 72 h, relative to cycloheximide control, log10 luminescence, inhibitor, CMK %inh, 10 µM
MV4-11 [15] = test system: MV4-11; parameters: species or system AML cell lines (8); Primary HTS, single concentration about 10 uM, Cell Titer Glo viability; log10 luminescence, per cent inhibition relative to cycloheximide control; details: 72 h, relative to cycloheximide control, log10 luminescence, inhibitor, MV4-11 %inh, 10 µM
M07e [16] = test system: M07e; parameters: species or system AML cell lines (8); Primary HTS, single concentration about 10 uM, Cell Titer Glo viability; log10 luminescence, per cent inhibition relative to cycloheximide control; details: 72 h, relative to cycloheximide control, log10 luminescence, inhibitor, M07e %inh, 10 µM
CHRF288-11 [17] = test system: CHRF288-11; parameters: species or system AML cell lines (8); Primary HTS, single concentration about 10 uM, Cell Titer Glo viability; log10 luminescence, per cent inhibition relative to cycloheximide control; details: 72 h, relative to cycloheximide control, log10 luminescence, inhibitor, CHRF288-11 %inh, 10 µM
ML-2 = test system: ML-2; parameters: species or system AML cell lines (8); Primary HTS, single concentration about 10 uM, Cell Titer Glo viability; log10 luminescence, per cent inhibition relative to cycloheximide control; details: 72 h, relative to cycloheximide control, log10 luminescence, inhibitor, ML-2 %inh, 10 µM
CMS [18] = test system: CMS; parameters: species or system AML cell lines (8); Primary HTS, single concentration about 10 uM, Cell Titer Glo viability; log10 luminescence, per cent inhibition relative to cycloheximide control; details: 72 h, relative to cycloheximide control, log10 luminescence, inhibitor, CMS %inh, 10 µM
[19] = secondary high-throughput screen, ML-2, read-out: average effective concentration, ML-2
[20] = secondary high-throughput screen, MOLM-13, read-out: average effective concentration, MOLM-13
[21] = secondary high-throughput screen, MV4-11, read-out: average effective concentration, MV4-11
[22] = secondary high-throughput screen, CMS
[23] = secondary high-throughput screen, CHRF288-11
[24] = secondary high-throughput screen

Row | SMILES | EC50 (MOLM-13 [2]; [20]) | EC50 (MV4-11 [4]; [21]) | EC50 (U937 [5]) | EC50 (ML2; [19]) | EC50 (M07e [6]) | EC50 (CMS [7]; [22]) | EC50 (CMK [9]) | EC50 (CHRF288-11 [11]; [23]) | EC50 (CMS [7]) | EC50 (CMK [9]; [24]) | also measured
1 | CN1CC[C@H](c2c(O)cc(O)c3c(=O)cc(-c4ccccc4Cl)oc23)[C@H](O)C1 [ALVOCIDIB] | 36 nM | 50 nM | 29 nM | 47 nM | > 10 µM | 64 nM | – | – | – | – | EC50 (CHRF288-11 [1]): > 10 µM; EC50 (CMK [3]): > 10 µM
2 | Nc1cc(C(F)(F)F)c(-c2cc(N3CCOCC3)nc(N3CCOCC3)n2)cn1 [BUPARLISIB] | 1500 nM | 1800 nM | 3000 nM | 1400 nM | > 10 µM | – | 4100 nM | 5700 nM | 1600 nM | – | –
3 | COCc1c(C(C)C)nc(C(C)C)c(/C=C/[C@@H](O)C[C@@H](O)CC(=O)O)c1-c1ccc(F)cc1 [CERIVASTATIN] | 890 nM | 340 nM | 2300 nM | 1600 nM | > 10 µM | 6800 nM | – | 49 nM | – | 160 nM | –
4 | CC(C)c1cc(-c2n[nH]c(=O)n2-c2ccc3c(ccn3C)c2)c(O)cc1O [GANETESPIB] | 2.4 nM | 1 nM | 1.6 nM | 5.4 nM | > 10 µM | – | 2.3 nM | 7 nM | 10 nM | – | EC50 (CMS [12]): 9.6 nM
5 | OC(c1cc(C(F)(F)F)nc2c(C(F)(F)F)cccc12)C1CCCCN1 (stereo not shown) [MEFLOQUINE] | – | – | > 10000 nM | > 10000 nM | > 10 µM | > 10000 nM | – | > 10000 nM | – | – | EC50 (MOLM-13 [8]): > 10000 nM; EC50 (MV4-11 [13]): > 10 µM; EC50 (CMK [3]): > 10 µM
6 | CNC(=O)c1nn(C)c2c1C(C)(C)Cc1cnc(Nc3ccc(N4CCN(C)CC4)cc3)nc1-2 [MILCICLIB] | 1 nM | 1 nM | 5300 nM | 5600 nM | > 10 µM | – | 29 nM | 2200 nM | 6400 nM | – | –
7 | CC1(C)CCC(c2ccc(Cl)cc2)=C(CN2CCN(c3ccc(C(=O)NS(=O)(=O)c4ccc(N[C@H](CCN5CCOCC5)CSc5ccccc5)c(S(=O)(=O)C(F)(F)F)c4)cc3)CC2)C1 [NAVITOCLAX] | 5100 nM | 68 nM | > 10000 nM | 7100 nM | > 10 µM | – | 1200 nM | > 10000 nM | 29 nM | – | CMK %inh (CMK [14]): 132.4% and 82.78%; MV4-11 %inh (MV4-11 [15]): 77.41% and 95.61%; M07e %inh (M07e [16]): 48.21% and 73.78%; CHRF288-11 %inh (CHRF288-11 [17]): 23.49% and 12.88%; ML-2 %inh (ML-2): 57.75% and 49.42%; CMS %inh (CMS [18]): 98.49% and 71.04%
8 | Cc1cnc(NC(=O)Nc2cc(Br)c(C)cc2OC[C@@H]2CNCCO2)cn1 [RABUSERTIB] | 400 nM | 500 nM | 3300 nM | 74 nM | > 10 µM | 8500 nM | – | 2100 nM | – | 450 nM | –
9 | COc1cc(F)c(F)c(Nc2ccc(I)cc2F)c1NS(=O)(=O)C1(C[C@H](O)CO)CC1 [REFAMETINIB] | 1200 nM | – | – | 1 nM | > 10 µM | > 10000 nM | – | – | – | 8600 nM | EC50 (CHRF288-11 [1]): > 10 µM; EC50 (U937 [10]): > 10 µM; EC50 (MV4-11 [13]): > 10 µM
10 | Cn1cc(-c2cnn3c(N)c(Br)c([C@@H]4CCCNC4)nc23)cn1 [SCH-900776] | – | – | – | – | > 10 µM | – | 130 nM | – | > 10000 nM | – | EC50 (ML2; ML-2, read-out: average effective concentration, ML-2): 53 nM; EC50 (U937 [10]): > 10 µM; EC50 (MOLM-13 [2]; MOLM-13, read-out: average effective concentration, MOLM-13): 51 nM; EC50 (MV4-11 [4]; MV4-11, read-out: average effective concentration, MV4-11): 83 nM; EC50 (CHRF288-11 [11]): 470 nM
11 | C=CCNC1=C2C[C@@H](C)C[C@H](OC)[C@H](O)[C@@H](C)/C=C(\C)[C@H](OC(N)=O)[C@@H](OC)/C=C\C=C(/C)C(=O)NC(=CC1=O)C2=O [TANESPIMYCIN] | 80 nM | 120 nM | 50 nM | 100 nM | > 10 µM | 180 nM | – | 1300 nM | – | 280 nM | –
12 | CC[C@]1(O)C[C@@H]2CN(CCc3c([nH]c4ccccc34)[C@@](C(=O)OC)(c3cc4c(cc3OC)N(C)[C@H]3[C@@](O)(C(=O)OC)[C@H](OC(C)=O)[C@]5(CC)C=CCN6CC[C@]43[C@@H]65)C2)C1 [VINBLASTINE SULFATE] | 220 nM | 56 nM | 160 nM | 570 nM | > 10 µM | 340 nM | – | 570 nM | – | 3800 nM | –
13 | CCC1=C[C@@H]2CN(C1)Cc1c([nH]c3ccccc13)[C@@](C(=O)OC)(c1cc3c(cc1OC)N(C)[C@H]1[C@@](O)(C(=O)OC)[C@H](OC(C)=O)[C@]4(CC)C=CCN5CC[C@]31[C@@H]54)C2 [VINORELBINE] | 29 nM | 32 nM | 32 nM | 40 nM | > 10 µM | – | – | 2100 nM | 240 nM | – | EC50 (CMK [3]): > 10 µM

More lines, main results first:

Row | EC50 (MOLM-13 [2]; [20]) | EC50 (MV4-11 [4]; [21]) | EC50 (U937 [5]) | SMILES | EC50 (ML2; [19]) | EC50 (M07e [6]) | EC50 (CMS [7]; [22]) | EC50 (CMK [9]) | EC50 (CHRF288-11 [11]; [23]) | EC50 (CMS [7]) | EC50 (CMK [9]; [24]) | also measured
14 | – | 8 nM | – | CC(C)c1cc(C(=O)N2Cc3ccc(CN4CCN(C)CC4)cc3C2)c(O)cc1O [AT13387] | 23 nM | > 10 µM | – | 11 nM | 39 nM | 34 nM | – | EC50 (MOLM-13 [8]): 9.4 nM; EC50 (U937 [10]): > 10 µM
15 | > 10000 nM | 1 nM | 63 nM | NC(=O)Nc1cc(-c2cccc(F)c2)sc1C(=O)N[C@H]1CCCNC1 [AZD7762] | 26 nM | > 10 µM | 680 nM | – | 110 nM | – | 45 nM | –
16 | 55 nM | 56 nM | 30 nM | COc1c(C)cnc(Cn2cnc3c(Cl)nc(N)nc32)c1C [BIIB021] | 83 nM | > 10 µM | 110 nM | – | 91 nM | – | 67 nM | –
17 | 170 nM | 590 nM | 90 nM | C[C@@H](Oc1cc(-n2cnc3ccc(CN4CCN(C)CC4)cc32)sc1C(N)=O)c1ccccc1C(F)(F)F [GSK461364] | 59 nM | > 10 µM | – | 750 nM | – | 10000 nM | – | EC50 (CHRF288-11 [1]): > 10 µM
18 | 10 nM | 20 nM | 22 nM | COCCn1c2c([n+](Cc3cnccn3)c1C)C(=O)c1ccccc1C2=O [YM-155] | 21 nM | > 10 µM | 91 nM | – | 2300 nM | – | 31 nM | –

Source: publication PMC6522510 (Nature Communications, 2019)
